# Biological target: T1, BpGH94MLG (Blautia producta, UniProt A0A7G5MNS2)
# T1 sequence (A0A7G5MNS2 1-804): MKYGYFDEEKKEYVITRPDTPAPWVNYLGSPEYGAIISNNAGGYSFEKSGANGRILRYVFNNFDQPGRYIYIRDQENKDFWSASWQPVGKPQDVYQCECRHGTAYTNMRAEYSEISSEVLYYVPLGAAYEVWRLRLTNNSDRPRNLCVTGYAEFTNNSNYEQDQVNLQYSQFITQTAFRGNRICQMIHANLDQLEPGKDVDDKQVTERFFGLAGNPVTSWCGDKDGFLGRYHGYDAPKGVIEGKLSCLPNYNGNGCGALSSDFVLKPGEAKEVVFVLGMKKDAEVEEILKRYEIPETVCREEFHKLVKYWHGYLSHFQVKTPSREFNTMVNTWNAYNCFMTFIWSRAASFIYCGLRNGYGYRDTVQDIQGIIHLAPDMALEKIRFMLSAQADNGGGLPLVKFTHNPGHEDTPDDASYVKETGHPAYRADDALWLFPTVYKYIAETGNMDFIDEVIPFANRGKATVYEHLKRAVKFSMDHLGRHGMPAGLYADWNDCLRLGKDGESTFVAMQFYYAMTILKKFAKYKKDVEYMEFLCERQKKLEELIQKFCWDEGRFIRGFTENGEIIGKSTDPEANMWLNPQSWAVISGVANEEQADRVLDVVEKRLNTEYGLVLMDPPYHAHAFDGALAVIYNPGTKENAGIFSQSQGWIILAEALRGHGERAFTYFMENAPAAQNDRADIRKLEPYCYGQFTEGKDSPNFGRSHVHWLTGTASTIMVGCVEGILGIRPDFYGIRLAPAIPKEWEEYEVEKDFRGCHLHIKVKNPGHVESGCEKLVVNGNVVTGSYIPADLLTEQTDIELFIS
# Assay: Phosphorolysis activity of BpGH94MLG on substrates (TLC)
# Type: biochemical, Blautia producta ATCC 27340
# Conditions: inorganic phosphate, 37 °C
# Method: TLC was used for analyzing enzymatic actions. […] Kinetics parameters for BpGH94MLG were determined with G4G3G, G4G4G3G and cellotriose, following a p-hydroxybenzoic acid hydrazide (PAHBAH) reducing sugar assay ([69]).
substance,measurement,value
Barley β-glucan,phosphorolysis activity of BpGH94MLG (in words),catalyzed phosphorolysis

# Reference: PMC10318527, “Utilization of dietary mixed-linkage β-glucans by the Firmicute Blautia producta” (The Journal of Biological Chemistry, 2023)
